This passage reports GI50 and TGI results from PubChem BioAssay (NCI).

Holding throughout (test): inhibition of tumour cell growth, NCI panel, 48 h
The test system of assay [1] is HL-60(TB) leukemia.
Assay [2] has as its system RPMI-8226 leukemia.
The subject of assay [3] is NCI-H226 lung.
In assay [4] the test system is HCT-116 colon.
The subject of assay [5] is ACHN renal.
The test system of assay [6] is A498 renal.
The test system of assay [7] is SF-539 CNS.
The subject of assay [8] is HCC-2998 colon.
Assay [9] has as its system COLO 205 colon.
For assay [10], the system named is OVCAR-5 ovarian.

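Exposure lasted 48 hours, with cells grown in 96-well plates and compounds tested at five concentrations. GI50: concentration for 50% inhibition of growth. TGI denotes the concentration required for complete inhibition of growth.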

With `Cc1ccc(-c2nc3nc(-c4ccc(F)cc4)nc(N4CCCNCC4)c3o2)cc1`, the GI50 was 0.211 µM in assay [1]; 1.85 µM in assay [2]; 1.96 µM in assay [3]; 0.457 µM in [4]; 1.73 µM in assay [5]; 1.68 µM in assay [6]. The GI50 in [7] is 1.66 µM; in assay [8], 1.68 µM; in assay [9] it was 2.03 µM; in assay [10], 1.65 µM. Further, the TGI is 0.46 µM in [1]; 4.66 µM in assay [2]; 4.05 µM in [3]; 1.73 µM in [4]; 3.1 µM in assay [5]; 3.12 µM in [6]. The TGI in assay [7] came out at 3.04 µM; in assay [8] it was 3.37 µM; in assay [9], 4.07 µM; in [10] it was 3 µM.
`COc1ccc2c(c1)/C(=C/c1cc(OC)c(OC)c(OC)c1)C(=O)N2`: the GI50 was 0.0908 µM in [1]; 0.275 µM in assay [2]; over 30.9 µM in [3]; 0.0272 µM in assay [4]; 4.19 µM in assay [5]; 0.146 µM in assay [6]. Further, the GI50 was 0.74 µM in [7], 0.586 µM in assay [8], 0.517 µM in [9] and 1.9 µM in assay [10]. Besides, the TGI in assay [1] is over 100 µM; in [2] it was 1.18 µM; in [3], over 100 µM; in assay [4], over 100 µM; in assay [5] it was over 100 µM; in [6], 0.848 µM. Also, the TGI was 19.5 µM in [7], 16 µM in [8], 3.03 µM in assay [9] and over 100 µM in [10].
Consider `O=C1OCC2=C1C(c1ccccc1)c1cc3c(cc1N2CCO)OCO3` (stereo not given), for which the GI50 in assay [1] is 3.46 µM; in [2], 3.09 µM; in [3] it was over 50 µM; in assay [4], 1.79 µM; in [5], 30.5 µM; in [6], 3.38 µM. For the same compound, the GI50 was 2.41 µM in assay [7], 9.91 µM in assay [8], 2.71 µM in assay [9] and 13.4 µM in [10]. The TGI in assay [1], in assay [2], in assay [3], in [4], in assay [5] and in [6] was over 50 µM throughout. Further, the TGI in assay [7] was over 50 µM; in assay [8], over 50 µM; in assay [9], 17.1 µM; in [10], over 50 µM.
Consider `COc1ccc(C(=O)c2ccc([As]=O)cc2)cc1` (stereo not given), for which the GI50 was 0.106 µM in [1]; 0.0224 µM in assay [2]; 0.169 µM in assay [3]; 0.0387 µM in assay [4]; 0.0333 µM in assay [5]; 0.164 µM in assay [6]. Further, the GI50 is 0.0432 µM in assay [7], 0.113 µM in [8], 0.041 µM in assay [9] and 0.144 µM in assay [10]. Further, the TGI in [1] stood at 0.346 µM; in [2] it was 0.0643 µM; in assay [3], 0.459 µM; in assay [4], 0.154 µM; in [5], 0.119 µM; in [6], 0.305 µM. In addition, the TGI in [7] is 0.163 µM; in [8] it was 0.246 µM; in assay [9], 0.166 µM; in assay [10] it was 0.292 µM.
Regarding `O=C(O)[C@@H](Cc1ccc2ccccc2c1)NC(=O)n1c2ccccc2c2ccccc21`, the GI50 in assay [1] is 3.3 µM; in assay [2], 3.83 µM; in [3], 2.1 µM; in assay [4], 2.32 µM; in assay [5] it was 4.83 µM; in assay [6], 2.23 µM. Besides, the GI50 in [7] is 1.99 µM; in assay [8], 3.91 µM; in assay [9], 2.55 µM; in assay [10], 5.05 µM. The TGI in [1] was 18.3 µM; in assay [2] it was 31.7 µM; in assay [3], 9.32 µM; in assay [4] it was 11.8 µM; in assay [5], 93.6 µM; in [6] it was 9.31 µM. Besides, the TGI in assay [7] is 6.61 µM; in [8], 19.1 µM; in assay [9], 5.29 µM; in assay [10] it was over 100 µM.
For `O=C(Nc1ccc(Cl)c(Cl)c1)NS(=O)(=O)c1cnccc1Oc1ccc(F)cc1`, the GI50 is 2.12 µM in assay [1]; 2.01 µM in assay [2]; 9.77 µM in assay [3]; 3.07 µM in [4]; 3.22 µM in assay [5]; over 100 µM in assay [6]. Besides, the GI50 was 3.64 µM in assay [7], 4.43 µM in assay [8], 2.97 µM in [9] and 6.28 µM in assay [10]. Further, the TGI is 7.19 µM in assay [1]; 5.36 µM in [2]; over 100 µM in assay [3]; 12.3 µM in [4]; over 100 µM in assay [5]; over 100 µM in assay [6]. The TGI in [7] came out at 24.6 µM; in [8], 38.1 µM; in assay [9], 7.59 µM; in assay [10], 95.2 µM.
On to `COc1ccc(OC)c(Cn2cc3c(c2-c2ccccc2)CCc2cnoc2-3)c1`, for which the GI50 in assay [1] is 2.03 µM; in assay [2] it was 6.54 µM; in [3] it was 40.8 µM; in assay [4], 4.04 µM; in [5], 6.89 µM; in assay [6] it was 2.12 µM. Also, the GI50 was 4.24 µM in [7], 8.83 µM in assay [8], 6.31 µM in assay [9] and 10.8 µM in assay [10]. Further, the TGI in assay [1] is 6.52 µM; in assay [2], over 100 µM; in assay [3], over 100 µM; in assay [4], over 100 µM; in assay [5] it was over 100 µM; in assay [6], 9.28 µM. The TGI is 56.9 µM in [7], over 100 µM in [8], over 100 µM in assay [9] and over 100 µM in [10].
As for `CCCCN(CC)CC(C(C)=O)c1c(O)c2ccccc2oc1=O` (stereo not given), the TGI in [1], in assay [2], in assay [3], in [4], in assay [5] and in assay [6] was over 100 µM each time. For the same compound, the TGI in assay [7], in assay [8], in assay [9] and in assay [10] was over 100 µM each time.
`CC(=O)O[C@H]1CCc2c(cc(N)c3c2C(=O)C[C@]2(C)C([C@H](C)CCCC(C)C)CCC32C)C1(C)C` (stereo not given in full): the TGI in assay [1], in assay [2], in assay [3], in [4], in [5] and in assay [6] was over 100 µM in each case. The TGI in assay [7], in assay [8], in assay [9] and in assay [10] was over 100 µM throughout.
For `CSC(=S)N/N=C/c1nccc2ccccc12`, the TGI in [1] was 6.69 µM; in [2], 11.6 µM; in assay [3] it was 12 µM; in [4], over 100 µM; in [5], 12.2 µM; in [6], 13.6 µM. Also, the TGI in assay [7] was determined as 4.83 µM; in assay [8], 11.3 µM; in assay [9] it was 1.58 µM; in assay [10], 8.96 µM.
As for `Nc1ccc(/C=C/C(=O)NCc2cc3cc(-c4ccc(C(=O)N5CCC(F)(F)CC5)cc4)cc(-c4ccc(F)cc4)c3o2)cn1`, the GI50 in assay [1] is 5.61 µM; in [2], 0.563 µM; in assay [3] it was over 100 µM; in [4] it was 0.0491 µM; in [5] it was 83.9 µM; in assay [6] it was over 100 µM. The GI50 is 0.118 µM in assay [7], 10.5 µM in [8], 0.327 µM in assay [9] and 8.43 µM in assay [10]. Besides, the TGI in [1], in assay [2], in assay [3], in [4], in assay [5] and in assay [6] was over 100 µM in each case. Further, the TGI in assay [7] is over 100 µM; in assay [8], over 100 µM; in assay [9] it was over 62.9 µM; in assay [10], over 100 µM.
For the compound `C=CC(OCC)(OCC)OCC`, the TGI is over 100 µM in assay [1]; over 100 µM in [2]; over 100 µM in [3]; 43.6 µM in assay [4]; over 100 µM in assay [5]; over 100 µM in assay [6]. The TGI in assay [7], in [8], in assay [9] and in [10] was over 100 µM throughout.
`O=S(=O)(NCCCNc1nccc(-c2c(-c3ccc(F)cc3)nc3sccn23)n1)c1ccc2ccccc2c1`: the GI50 in [1] was 4.25 µM; in [2], 4.05 µM; in assay [3], 5.77 µM; in assay [4], 4.41 µM; in assay [5] it was 3.42 µM; in assay [6], 3.01 µM. Besides, the GI50 was over 100 µM in assay [7], 3.37 µM in assay [8], 2.22 µM in [9] and over 100 µM in assay [10]. In addition, the TGI in assay [1], in assay [2], in assay [3], in [4], in [5] and in assay [6] was over 100 µM throughout. Also, the TGI in [7] was over 100 µM; in assay [8], 9.61 µM; in assay [9] it was 4.81 µM; in [10], over 100 µM.
